Key:
[1] = tested on: T1 (DNA, G4) GGGTTGGGTTGGGTTGGG; experiment: CD melting at 262 nm; details: 5 mM K+, 95 mM Li+; 10 mM lithium cacodylate pH 7.2; ~5 μM DNA, 2 eq. NMM
[2] = tested on: T7 (DNA, G4) TGGGTTGGGTTGGGTTGGGT; experiment: CD melting at 262 nm; details: 5 mM K+, 95 mM Li+; 10 mM lithium cacodylate pH 7.2; ~5 μM DNA, 2 eq. NMM
[3] = tested on: T8 (DNA, G4) CGGGTTGGGTTGGGTTGGGG; experiment: CD melting at 262 nm; details: 5 mM K+, 95 mM Li+; 10 mM lithium cacodylate pH 7.2; ~5 μM DNA, 2 eq. NMM
[4] = tested on: T1 (DNA, G4) GGGTTGGGTTGGGTTGGG; experiment: X-ray crystallography, 2.39 Å; details: 20 mM K+; annealed in 10 mM lithium cacodylate pH 7.2; 5'-5' GQ dimer, NMM on 3' G-quartet
[5] = tested on: T7 (DNA, G4) TGGGTTGGGTTGGGTTGGGT; experiment: X-ray crystallography, 2.34 Å; details: 20 mM K+; annealed in 10 mM lithium cacodylate pH 7.2; 5'-5' GQ dimer, NMM on 3' G-quartet
[6] = tested on: T7 (DNA, G4) TGGGTTGGGTTGGGTTGGGT; experiment: UV-vis titration, SVD, direct fit; details: 5 mM K+, 95 mM Li+; 10 mM lithium cacodylate pH 7.2; 4.3 μM NMM titrated with DNA

ΔTm [1]: 20. ± 1 °C | ΔTm [2]: 19.9 ± 0.4 °C | ΔTm [3]: 17.0 ± 0.5 °C | binding [4]: yes | binding [5]: yes | Ka [6]: 18 ± 7 µM⁻¹
Structure (SMILES): CCc1c(C)c2cc3nc(cc4nc(cc5c(CC)c(C)c(cc1[nH]2)n5C)C(C)=C4CCC(=O)O)C(CCC(=O)O)=C3C
